Article PMC6100044 (Molecules : A Journal of Synthetic Chemistry and Natural …, 2018)
Like-named read-outs stand apart in the source and are kept apart here.

Columns and labels:
[1] = test system: Plasmodium falciparum (Pf) D6; settings: Pf D6 in vitro; cited from earlier work
[2] = test system: Plasmodium falciparum (Pf) W2; settings: Pf W2 in vitro; cited from earlier work
[3] = test system: mouse fibrosarcoma cell line WEHI-164; assay: Cytotoxicity, MTT assay, WEHI-164; assay type: cell-based; settings: read-out: WEHI-164 Mean ± S.D. IC50
[4] = test system: P. falciparum CQ-sensitive D10; assay: In vitro antimalarial assay (pLDH), Pf D10 strain; assay type: cell-based, Plasmodium falciparum; settings: for Ratio IC50 cpd/IC50 DHA: D10 strain; for IC50: read-out: D10 (CQ-S) Mean ± S.D. IC50; for SI IC50WEHI-164/IC50 cpd: selectivity index versus D10 strain
Description: (§1) Compounds were dissolved in either water or DMSO and then diluted with medium to achieve the required concentrations (final DMSO concentration <1%, which is non-toxic to the parasite). […] Parasite growth was determined spectrophotometrically (OD650) by measuring the activity of the parasite lactate dehydrogenase (pLDH) according to a modification of the method of Makler in control and drug-treated cultures.
(§2) As a blank, uninfected RBCs were used for the antimalarial assays or media without cells for the cytotoxicity assays. The percent viability was plotted as a function of drug concentrations, and the curve fitting was obtained by nonlinear regression analysis using a four parameter logistic method (software Gen5 1.10 provided with the Synergy4 plate reader [Biotek]).

[5] = test system: P. falciparum CQ-resistant W-2; assay: In vitro antimalarial assay (pLDH), Pf W-2 strain; assay type: cell-based, Plasmodium falciparum; settings: for IC50: 72 h, read-out: W-2 (CQ-R) Mean ± S.D. IC50; for Ratio IC50 cpd/IC50 DHA: W-2 strain; for SI IC50WEHI-164/IC50 cpd: selectivity index versus W-2 strain
Description: as §1, §2

[6] = test system: different strains of Plasmodium falciparum (Pf); assay: In vitro antimalarial assay (pLDH), summary over different Pf strains; assay type: cell-based; settings: for IC50: Plasmodium falciparum, range over D10 and W-2 strains, read-out: IC50 against different strains of Plasmodium falciparum; for selectivity index (SI) with respect to WEHI-164: WEHI-164 IC50 / antimalarial IC50, over the strains
Description: as §1, §2

[7] = test system: myelogenous leukemia cell line K562; assay: Cytotoxicity, MTT assay, K562; assay type: cell-based, human; settings: for IC50: Homo sapiens, K562, MTT assay conducted for 72 h, read-out: Mean (±S.D.) IC50 K562
Description: (§3) Selected compounds were carried forward for screening against the immortalized myelogenous leukemia, K562, human microvascular endothelial cells (HMEC-1) and fresh human fibroblasts HDF (Table 2) using the MTT assay, as above.
(§4) A long term microvascular endothelial cell line (HMEC-1) immortalized by SV 40 large T antigen was kindly provided by Dr. Francisco J. Candal, Center for Disease Control, Atlanta, GA, USA. […] Fibroblasts from skin biopsies were maintained in DMEM (EuroClone, Pero, Italy) supplemented with 10% fetal calf serum (HyClone, Logan, UT, USA), 2 mM glutamine, 100 U/mL of penicillin and 100 µg/mL of streptomycin.
(§5) Cells were then treated with serial dilutions of test compounds and cell proliferation evaluated using the MTT assay as previously described. […] All the tests were performed in triplicate at least three times.
as §2

[8] = test system: fresh human dermal fibroblasts HDF; assay: Cytotoxicity, MTT assay, HDF; assay type: cell-based; settings: Fibroblast, MTT assay conducted for 72 h, read-out: Mean (±S.D.) IC50 HDF
Description: as §3, §4, §5, §2

[9] = test system: human microvascular endothelial cells (HMEC-1); assay: Cytotoxicity, MTT assay, HMEC-1; assay type: cell-based; settings: MTT assay conducted for 72 h, read-out: Mean (±S.D.) IC50 HMEC
Description: as §3, §4, §5, §2

[10] = parameters: method as in earlier work; settings: 28 (artemisone), 29 (DHA); cited from earlier work
[11] = human; cited from earlier work
[12] = test system: Pf; settings: fold more active; cited from earlier work
[13] = fold more active; cited from earlier work
[14] = cited from earlier work
[15] = Mus musculus, WEHI-164, 72 h, MTT, 72 h
[16] = Plasmodium falciparum, D10, 72 h, CQ-sensitive strain, 72 h, pLDH readout
[17] = Plasmodium falciparum, CQ-resistant strain, pLDH readout
[18] = CQ-sensitive strain, 72 h, pLDH readout
[19] = CQ-resistant strain, pLDH readout

CC1CCC2C(C)C(OC3OC(CO)C(O)C(O)C3O)OC3OC4(C)CCC1C32OO4 (stereo not drawn) [Compound 12]
IC50 [1]: 29.4 nM
IC50 [2]: 79.7 nM

CC1CCC2C(C)C(N3CCNCC3)OC3OC4(C)CCC1C32OO4 (stereo not drawn) [Compound 10, 10α-(1-Piperazino)-10-deoxo-10-dihydroartemisinin]
IC50 [3, 15]: 150 ± 10 nM
Ratio IC50 cpd/IC50 DHA [4]: 0.41
IC50 [4, 16]: 1.4 ± 0.5 nM
SI IC50WEHI-164/IC50 cpd [4]: 107
IC50 [5, 17]: 1.1 ± 0.4 nM
Ratio IC50 cpd/IC50 DHA [5]: 0.73
SI IC50WEHI-164/IC50 cpd [5]: 136

CC1CCC2C(C)C(N3CCN(C4OC(CO)C(O)C4O)CC3)OC3OC4(C)CCC1C32OO4 (stereo not drawn) [Compound 25]
IC50 [6]: 0.58 to 0.87 nM
selectivity index (SI) with respect to WEHI-164 [6]: > 195
IC50 ([3]; MTT, 72 h): 160 ± 40 nM
IC50 [4, 18]: 0.66 ± 0.2 nM
Ratio IC50 cpd/IC50 DHA [4]: 0.19
SI IC50WEHI-164/IC50 cpd [4]: 242
IC50 [5, 19]: 0.58 ± 0.3 nM
Ratio IC50 cpd/IC50 DHA [5]: 0.39
SI IC50WEHI-164/IC50 cpd [5]: 275

CC1CCC2C(C)C(N3CCN(C4OC(CO)C(O)C4O)CC3)OC3OC4(C)CCC1C32OO4 (stereo not drawn) [Compound 24]
IC50 [7]: 870 ± 50 nM
IC50 ([3]; MTT, 72 h): 490 ± 200 nM
IC50 [8]: 389000 ± 8600 nM
IC50 [9]: 2390 ± 1510 nM
IC50 [4, 18]: 4.8 ± 2.9 nM
Ratio IC50 cpd/IC50 DHA [4]: 1.4
SI IC50WEHI-164/IC50 cpd [4]: 102
IC50 [5, 19]: 4.1 ± 3.2 nM
Ratio IC50 cpd/IC50 DHA [5]: 2.7
SI IC50WEHI-164/IC50 cpd [5]: 119

CC1CCC2C(C)C(N3CCN(C4OC(CO)C(OC5OC(CO)C(O)C(O)C5O)C(O)C4O)CC3)OC3OC4(C)CCC1C32OO4 (stereo not drawn) [Compound 21]
IC50 [7]: 780 ± 150 nM
IC50 [3, 15]: 250 ± 90 nM
IC50 [8]: 534000 ± 9900 nM
IC50 [9]: 2500 ± 800 nM
Ratio IC50 cpd/IC50 DHA [4]: 0.56
IC50 [4, 16]: 1.9 ± 1.1 nM
SI IC50WEHI-164/IC50 cpd [4]: 131
IC50 [5, 17]: 1.5 ± 0.5 nM
Ratio IC50 cpd/IC50 DHA [5]: 1.0
SI IC50WEHI-164/IC50 cpd [5]: 166

CC1CCC2C(C)C(N3CCN(C4OC(CO)C(O)C(O)C4O)CC3)OC3OC4(C)CCC1C32OO4 (stereo not drawn) [Compound 18]
IC50 [7]: 810 ± 240 nM
IC50 ([3]; MTT, 72 h): 280 ± 80 nM
IC50 [8]: 382000 ± 31200 nM
IC50 [9]: 4410 ± 2290 nM
IC50 [4, 18]: 1.3 ± 0.1 nM
Ratio IC50 cpd/IC50 DHA [4]: 0.38
SI IC50WEHI-164/IC50 cpd [4]: 215
IC50 [5, 19]: 1.2 ± 0.3 nM
Ratio IC50 cpd/IC50 DHA [5]: 0.8
SI IC50WEHI-164/IC50 cpd [5]: 233

CC1CCC2C(C)C(N3CCN(C4OC(CO)C(O)C4O)CC3)OC3OC4(C)CCC1C32OO4 (stereo not drawn) [Compound 26]
IC50 ([3]; MTT, 72 h): 210 ± 10 nM
IC50 [4, 18]: 1.3 ± 0.8 nM
Ratio IC50 cpd/IC50 DHA [4]: 0.38
SI IC50WEHI-164/IC50 cpd [4]: 161
IC50 [5, 19]: 0.82 ± 0.25 nM
Ratio IC50 cpd/IC50 DHA [5]: 0.55
SI IC50WEHI-164/IC50 cpd [5]: 256

C[C@H]1[C@@H](O)O[C@@H]2O[C@@]3(C)CC[C@H]4[C@H](C)CC[C@@H]1[C@@]24OO3 [DHA 2, dihydroartemisinin, reference compound]
elimination half-life [10]: ~ 1 h
plasma clearance [10]: ~ 5.4 L/h/kg
volume of distribution [10]: 7.7 L/kg
IC50 [7]: 2760 ± 660 nM
IC50 [3, 15]: 720 ± 140 nM
half-life of antimalarial activity [11]: ~ 3 h
IC50 [8]: 88700 ± 13300 nM
IC50 [9]: 1160 ± 400 nM
IC50 [4, 16]: 3.4 ± 1.6 nM

CC[C@@]1(O)C(=O)OCc2c1cc1n(c2=O)Cc2cc3ccccc3nc2-1 [Camptothecin, camptothecin, reference compound]
SI with respect to the human dermal fibroblasts (HDF) ([7]; HDF versus K562): < 100
IC50 [7]: 30 ± 10 nM
IC50 [8]: 2620 ± 840 nM

CC1CCC2C(C)C(N3CCN(C4CC(O)C(O)C(CO)O4)CC3)OC3OC4(C)CCC1C32OO4 (stereo not drawn) [Compound 22]
IC50 [3, 15]: 510 ± 100 nM
Ratio IC50 cpd/IC50 DHA [4]: 0.68
IC50 [4, 16]: 2.3 ± 1 nM
SI IC50WEHI-164/IC50 cpd [4]: 222
IC50 [5, 17]: 1.1 ± 0.4 nM
Ratio IC50 cpd/IC50 DHA [5]: 0.73
SI IC50WEHI-164/IC50 cpd [5]: 463

CC1CCC2C(C)C(OC3OC(CO)C(O)C(O)C3O)OC3OC4(C)CCC1C32OO4 (stereo not drawn) [Compound 11]
IC50 [1]: 272 nM
IC50 [2]: 76.3 nM

CC1CCC2C(C)C(N3CCN(C4OC(CO)C(O)C(O)C4O)CC3)OC3OC4(C)CCC1C32OO4 (stereo not drawn) [Compound 20]
IC50 ([3]; MTT, 72 h): 3400 nM
IC50 [4, 18]: 5.7 ± 2.9 nM
Ratio IC50 cpd/IC50 DHA [4]: 1.7
SI IC50WEHI-164/IC50 cpd [4]: 596
IC50 [5, 19]: 4.4 ± 2.3 nM
Ratio IC50 cpd/IC50 DHA [5]: 2.9
SI IC50WEHI-164/IC50 cpd [5]: 772

CC1CCC2C(C)C(N3CCN(C4OC(CO)C(O)C(O)C4O)CC3)OC3OC4(C)CCC1C32OO4 (stereo not drawn) [Compound 19]
IC50 [6]: 0.58 to 0.87 nM
selectivity index (SI) with respect to WEHI-164 [6]: > 195
IC50 ([3]; MTT, 72 h): 170 ± 30 nM
IC50 [4, 18]: 0.87 ± 0.25 nM
Ratio IC50 cpd/IC50 DHA [4]: 0.26
SI IC50WEHI-164/IC50 cpd [4]: 195
IC50 [5, 19]: 0.71 ± 0.2 nM
Ratio IC50 cpd/IC50 DHA [5]: 0.5
SI IC50WEHI-164/IC50 cpd [5]: 239

CC1CCC2C(C)C(N3CCN(C4OC(C)C(O)C(O)C4O)CC3)OC3OC4(C)CCC1C32OO4 (stereo not drawn) [Compound 23]
IC50 [6]: 0.58 to 0.87 nM
selectivity index (SI) with respect to WEHI-164 [6]: > 195
IC50 [7]: 1950 ± 480 nM
IC50 [3, 15]: 650 ± 60 nM
IC50 [8]: 314000 ± 85600 nM
IC50 [4, 18]: 0.74 ± 0.34 nM
Ratio IC50 cpd/IC50 DHA [4]: 0.22
IC50 [4, 16]: < 1 nM
SI IC50WEHI-164/IC50 cpd [4]: 878
IC50 [5, 19]: 0.74 ± 0.3 nM
IC50 [5, 17]: < 1 nM
Ratio IC50 cpd/IC50 DHA [5]: 0.49
SI IC50WEHI-164/IC50 cpd [5]: 878

CCN(CC)CCCC(C)Nc1ccnc2cc(Cl)ccc12 (stereo not drawn) [Chloroquine, chloroquine, reference compound]
IC50 ([3]; Mus musculus, WEHI-164, 72 h): > 10000 nM
IC50 ([4]; Plasmodium falciparum, D10, 72 h): 23.4 ± 10.1 nM
IC50 ([5]; Plasmodium falciparum): 264 ± 143 nM

C[C@@H]1CC[C@H]2[C@@H](C)C(=O)O[C@@H]3O[C@@]4(C)CC[C@@H]1[C@]32OO4 [artemisinin 1, artemisinin]
IC50 [1]: 10.4 nM
IC50 [2]: 2.4 nM

C[C@H]1[C@H](N2CCS(=O)(=O)CC2)O[C@@H]2O[C@@]3(C)CC[C@H]4[C@H](C)CC[C@@H]1[C@@]24OO3 [Artemisone 7, artemisone, reference compound]
IC50 [6]: 0.9 to 1.1 nM
elimination half-life [10]: ~ 3 h
plasma clearance [10]: ~ 3.5 L/h/kg
volume of distribution [10]: 14.5 L/kg
activity relative to artesunate 4 against Pf in vitro [12]: nine-fold
IC50 [7]: 260 ± 40 nM
IC50 [3, 15]: 296 ± 59 nM
activity relative to artesunate 4 in vivo [13]: at least three-fold
IC50 [8]: 88300 ± 33800 nM
Ratio IC50 cpd/IC50 DHA [4]: 0.32
IC50 [4, 16]: 1.1 ± 0.4 nM
SI IC50WEHI-164/IC50 cpd [4]: 269
IC50 [5, 17]: 0.9 ± 0.4 nM
Ratio IC50 cpd/IC50 DHA [5]: 0.6
SI IC50WEHI-164/IC50 cpd [5]: 328
neurotoxicity in vitro and in vivo [14]: negligible neurotoxicity
